Data: PubChem BioAssay AID254 (DTP/NCI, 2004)
Where “and” joins values, the source holds several entries; their conditions need not be identical. Equal values may be shown once. Toxic doses and inconclusive results are not listed.

System: L1210 leukemia iv in BDF1 mice, survival T/C
Assay: NCI In Vivo Anticancer Drug Screen. Data for tumor model L1210 Leukemia (intravenous) in B6D2F1 (BDF1) mice
Details: endpoint: mean survival time, higher = longer survival
Method: The antitumor activity of compounds was measured in mice bearing transplantable tumors. Survival or tumor size were measured and the results are expressed as the measurement made in the treated group (T) divided by the measurement made in the vehicle treated control group (C). The tumor model used in this assay is L1210 Leukemia (intravenous) in B6D2F1 (BDF1) mice

[1] = dose: 35.0 mg/kg/injection, schedule: Q01DX001 (ip), vehicle: other

For `O=NN(CCCl)C(=O)NC1CCC(=O)NC1=O` (stereo not given), the T/C (dose: 4.0 mg/kg/injection, schedule: Q01DX001 (ip), vehicle: other) was 162 % of control and 175 % of control, the T/C (dose: 8.0 mg/kg/injection, schedule: Q01DX001 (ip), vehicle: other) was 244 % of control and 260 % of control and the T/C (dose: 17.0 mg/kg/injection, schedule: Q01DX001 (ip), vehicle: other) was 380 % of control and 428 % of control. For the same molecule, the T/C [1] was 395 % of control and 570 % of control.
With `NC(=S)N/N=C/c1ccccn1` the T/C (dose: 5.0 mg/kg/injection, schedule: Q01HX008 (ip), vehicle: other) was 105 % of control, the T/C (dose: 5.0 mg/kg/injection, schedule: Q03HX008 (ip), vehicle: other) was 166 % of control and the T/C (dose: 8.0 mg/kg/injection, schedule: Q01DX008 (ip), vehicle: other) was 176 % of control. The T/C (dose: 8.0 mg/kg/injection, schedule: Q03HX008 (ip), vehicle: other) was 208 % of control, the T/C (dose: 8.0 mg/kg/injection, schedule: Q06HX008 (ip), vehicle: other) was 176 % of control and the T/C (dose: 8.0 mg/kg/injection, schedule: Q12HX008 (ip), vehicle: other) was 200 % of control. The T/C (dose: 22.0 mg/kg/injection, schedule: Q01DX001 (ip), vehicle: other) was 111 % of control and the T/C (dose: 33.0 mg/kg/injection, schedule: Q01DX001 (ip), vehicle: other) was 110 % of control.
`O=c1[nH]cc(F)c(=O)[nH]1` was tested, and the T/C (dose: 10.0 mg/kg/injection, schedule: Q01DX005 (ip), vehicle: saline) was 109 % of control, the T/C (dose: 20.0 mg/kg/injection, schedule: Q01DX005 (ip), vehicle: saline) was 120 % of control and the T/C (dose: 40.0 mg/kg/injection, schedule: Q01DX005 (ip), vehicle: saline) was 152 % of control. For the same molecule, the T/C (dose: 50.0 mg/kg/injection, schedule: Q01DX005 (ip), vehicle: saline) was 183 % of control, the T/C (dose: 60.0 mg/kg/injection, schedule: Q01DX005 (ip), vehicle: saline) was 182 % of control and 186 % of control and the T/C (dose: 120.0 mg/kg/injection, schedule: Q01DX001 (ip), vehicle: water) was 150 % of control. For the same molecule, the T/C (dose: 150.0 mg/kg/injection, schedule: Q01DX001 (ip), vehicle: water) was 154 % of control and the T/C (dose: 180.0 mg/kg/injection, schedule: Q01DX001 (ip), vehicle: water) was 180 % of control.
With `Nc1n[nH]c(N)n1` the T/C (dose: 100.0 mg/kg/injection, schedule: Q03HX024 (ip), vehicle: saline) was 104 % of control and 91 % of control and 100 % of control, the T/C (dose: 150.0 mg/kg/injection, schedule: Q03HX024 (ip), vehicle: saline) was 103 % of control (2×) and 104 % of control and the T/C (dose: 225.0 mg/kg/injection, schedule: Q03HX024 (ip), vehicle: saline) was 112 % of control and 116 % of control. The T/C (dose: 335.0 mg/kg/injection, schedule: Q03HX024 (ip), vehicle: saline) was 153 % of control and 159 % of control (2×), the T/C (dose: 500.0 mg/kg/injection, schedule: Q03HX024 (ip), vehicle: saline) was 201 % of control and 215 % of control and 257 % of control and the T/C (dose: 4000.0 mg/kg/injection, schedule: Q01DX001 (ip), vehicle: saline) was 120 % of control.
With `O=NN(CCCl)C(=O)NC1CCCC1` the T/C (dose: 9.0 mg/kg/injection, schedule: Q01DX001 (ip), vehicle: saline) was 106 % of control and 100 % of control, the T/C (dose: 19.0 mg/kg/injection, schedule: Q01DX001 (ip), vehicle: saline) was 114 % of control and 119 % of control and the T/C (dose: 38.0 mg/kg/injection, schedule: Q01DX001 (ip), vehicle: saline) was 160 % of control and 182 % of control. For the same molecule, the T/C (dose: 75.0 mg/kg/injection, schedule: Q01DX001 (ip), vehicle: saline) was 174 % of control and 202 % of control and the T/C (dose: 150.0 mg/kg/injection, schedule: Q01DX001 (ip), vehicle: saline) was 212 % of control and 265 % of control.
`CC1CCC(NC(=O)N(CCCl)N=O)CC1` (stereo not given) was tested, and the T/C (dose: 5.0 mg/kg/injection, schedule: Q04DX004 (ip), vehicle: other) was 124 % of control, the T/C (dose: 5.4 mg/kg/injection, schedule: Q01DX001 (oral), vehicle: other) was 122 % of control and the T/C (dose: 8.6 mg/kg/injection, schedule: Q04DX004 (ip), vehicle: saline with Tween-80) was 187 % of control. The T/C (dose: 10.0 mg/kg/injection, schedule: Q04DX004 (ip), vehicle: other) was 182 % of control, the T/C (dose: 10.7 mg/kg/injection, schedule: Q01DX001 (ip), vehicle: saline with Tween-80) was 152 % of control and 163 % of control and the T/C (dose: 12.0 mg/kg/injection, schedule: Q01DX001 (ip), vehicle: other) was 165 % of control. The T/C (dose: 12.0 mg/kg/injection, schedule: Q01DX001 (oral), vehicle: other) was 164 % of control and 187 % of control, the T/C (dose: 13.0 mg/kg/injection, schedule: Q04DX004 (ip), vehicle: saline with Tween-80) was 849 % of control and 850 % of control and the T/C (dose: 15.0 mg/kg/injection, schedule: Q01DX001 (ip), vehicle: other) was 352 % of control and 185 % of control and 332 % of control. For the same molecule, the T/C (dose: 15.0 mg/kg/injection, schedule: Q04DX004 (ip), vehicle: other) was 734 % of control, the T/C (dose: 16.0 mg/kg/injection, schedule: Q01DX001 (ip), vehicle: other) was 102 % of control and the T/C (dose: 16.0 mg/kg/injection, schedule: Q01DX001 (ip), vehicle: saline with Tween-80) was 189 % of control and 248 % of control. The T/C (dose: 20.0 mg/kg/injection, schedule: Q01DX001 (ip), vehicle: other) was 532 % of control and 303 % of control and 326 % of control, the T/C (dose: 20.0 mg/kg/injection, schedule: Q04DX004 (ip), vehicle: other) was 463 % of control and the T/C (dose: 20.0 mg/kg/injection, schedule: Q04DX004 (ip), vehicle: saline with Tween-80) was 983 % of control. For the same molecule, the T/C (dose: 24.0 mg/kg/injection, schedule: Q01DX001 (ip), vehicle: other) was 153 % of control, the T/C (dose: 24.0 mg/kg/injection, schedule: Q01DX001 (ip), vehicle: saline with Tween-80) was 347 % of control and 453 % of control and the T/C (dose: 27.0 mg/kg/injection, schedule: Q01DX001 (oral), vehicle: other) was 590 % of control and 633 % of control and 818 % of control. For the same molecule, the T/C (dose: 30.0 mg/kg/injection, schedule: Q01DX001 (ip), vehicle: other) was 683 % of control, the T/C (dose: 30.0 mg/kg/injection, schedule: Q04DX004 (ip), vehicle: other) was 819 % of control and the T/C [1] was 761 % of control. The T/C (dose: 36.0 mg/kg/injection, schedule: Q01DX001 (ip), vehicle: other) was 153 % of control, the T/C (dose: 36.0 mg/kg/injection, schedule: Q01DX001 (ip), vehicle: saline with Tween-80) was 612 % of control and the T/C (dose: 36.0 mg/kg/injection, schedule: Q01DX001 (oral), vehicle: other) was 751 % of control and 753 % of control and 868 % of control. The T/C (dose: 40.0 mg/kg/injection, schedule: Q01DX001 (oral), vehicle: other) was 633 % of control and 786 % of control and 818 % of control, the T/C (dose: 45.0 mg/kg/injection, schedule: Q01DX001 (oral), vehicle: other) was 574 % of control and 600 % of control and the T/C (dose: 50.0 mg/kg/injection, schedule: Q01DX001 (ip), vehicle: other) was 542 % of control and 661 % of control. For the same molecule, the T/C (dose: 54.0 mg/kg/injection, schedule: Q01DX001 (ip), vehicle: other) was 202 % of control, the T/C (dose: 54.0 mg/kg/injection, schedule: Q01DX001 (ip), vehicle: saline with Tween-80) was 683 % of control and 875 % of control and the T/C (dose: 54.0 mg/kg/injection, schedule: Q01DX001 (oral), vehicle: other) was 810 % of control and 983 % of control and 179 % of control. For the same molecule, the T/C (dose: 55.0 mg/kg/injection, schedule: Q01DX001 (ip), vehicle: other) was 500 % of control and 295 % of control, the T/C (dose: 60.0 mg/kg/injection, schedule: Q01DX001 (ip), vehicle: saline with Tween-80) was 557 % of control and the T/C (dose: 60.0 mg/kg/injection, schedule: Q01DX001 (oral), vehicle: other) was 408 % of control and 434 % of control and 185 % of control. For the same molecule, the T/C (dose: 70.0 mg/kg/injection, schedule: Q01DX001 (ip), vehicle: other) was 433 % of control and 226 % of control, the T/C (dose: 71.0 mg/kg/injection, schedule: Q01DX001 (ip), vehicle: saline with Tween-80) was 156 % of control and 167 % of control and the T/C (dose: 80.0 mg/kg/injection, schedule: Q01DX001 (ip), vehicle: other) was 580 % of control and 171 % of control. For the same molecule, the T/C (dose: 81.0 mg/kg/injection, schedule: Q01DX001 (ip), vehicle: other) was 378 % of control [middle of 4 runs], the T/C (dose: 81.0 mg/kg/injection, schedule: Q01DX001 (ip), vehicle: saline with Tween-80) was 520 % of control and 719 % of control and the T/C (dose: 90.0 mg/kg/injection, schedule: Q01DX001 (ip), vehicle: other) was 511 % of control. For the same molecule, the T/C (dose: 90.0 mg/kg/injection, schedule: Q01DX001 (oral), vehicle: other) was 372 % of control and 320 % of control, the T/C (dose: 91.0 mg/kg/injection, schedule: Q01DX001 (oral), vehicle: other) was 336 % of control and 513 % of control and 303 % of control and the T/C (dose: 100.0 mg/kg/injection, schedule: Q01DX001 (ip), vehicle: other) was 350 % of control. For the same molecule, the T/C (dose: 107.0 mg/kg/injection, schedule: Q01DX001 (ip), vehicle: saline with Tween-80) was 201 % of control and 229 % of control, the T/C (dose: 110.0 mg/kg/injection, schedule: Q01DX001 (ip), vehicle: other) was 188 % of control and the T/C (dose: 120.0 mg/kg/injection, schedule: Q01DX001 (ip), vehicle: other) was 245 % of control. For the same molecule, the T/C (dose: 160.0 mg/kg/injection, schedule: Q01DX001 (ip), vehicle: saline with Tween-80) was 392 % of control and 248 % of control, the T/C (dose: 240.0 mg/kg/injection, schedule: Q01DX001 (ip), vehicle: saline with Tween-80) was 556 % of control and the T/C (dose: 360.0 mg/kg/injection, schedule: Q01DX001 (ip), vehicle: saline with Tween-80) was 194 % of control and 263 % of control. The T/C (dose: 540.0 mg/kg/injection, schedule: Q01DX001 (ip), vehicle: saline with Tween-80) was 173 % of control.
